Test [1] has as its target T1, Metabotropic glutamate receptor 5 (Rattus norvegicus, UniProt P31424). The experiment in a line: Concentration required for 50% inhibition of rat metabotropic glutamate receptor 5 was determined using inositol phosphate hydrolysis assay.
The target in test [2] is T1, Metabotropic glutamate receptor 5. In words: In vitro binding affinity of compound towards rat metabotropic glutamate receptor 5 was determined by displacement of [3H]M-MPEP from rat whole brain. In general terms: Loss of bound radioactivity is the signal in a displacement assay; it reports binding, not function.

T1 sequence (P31424 whole entry): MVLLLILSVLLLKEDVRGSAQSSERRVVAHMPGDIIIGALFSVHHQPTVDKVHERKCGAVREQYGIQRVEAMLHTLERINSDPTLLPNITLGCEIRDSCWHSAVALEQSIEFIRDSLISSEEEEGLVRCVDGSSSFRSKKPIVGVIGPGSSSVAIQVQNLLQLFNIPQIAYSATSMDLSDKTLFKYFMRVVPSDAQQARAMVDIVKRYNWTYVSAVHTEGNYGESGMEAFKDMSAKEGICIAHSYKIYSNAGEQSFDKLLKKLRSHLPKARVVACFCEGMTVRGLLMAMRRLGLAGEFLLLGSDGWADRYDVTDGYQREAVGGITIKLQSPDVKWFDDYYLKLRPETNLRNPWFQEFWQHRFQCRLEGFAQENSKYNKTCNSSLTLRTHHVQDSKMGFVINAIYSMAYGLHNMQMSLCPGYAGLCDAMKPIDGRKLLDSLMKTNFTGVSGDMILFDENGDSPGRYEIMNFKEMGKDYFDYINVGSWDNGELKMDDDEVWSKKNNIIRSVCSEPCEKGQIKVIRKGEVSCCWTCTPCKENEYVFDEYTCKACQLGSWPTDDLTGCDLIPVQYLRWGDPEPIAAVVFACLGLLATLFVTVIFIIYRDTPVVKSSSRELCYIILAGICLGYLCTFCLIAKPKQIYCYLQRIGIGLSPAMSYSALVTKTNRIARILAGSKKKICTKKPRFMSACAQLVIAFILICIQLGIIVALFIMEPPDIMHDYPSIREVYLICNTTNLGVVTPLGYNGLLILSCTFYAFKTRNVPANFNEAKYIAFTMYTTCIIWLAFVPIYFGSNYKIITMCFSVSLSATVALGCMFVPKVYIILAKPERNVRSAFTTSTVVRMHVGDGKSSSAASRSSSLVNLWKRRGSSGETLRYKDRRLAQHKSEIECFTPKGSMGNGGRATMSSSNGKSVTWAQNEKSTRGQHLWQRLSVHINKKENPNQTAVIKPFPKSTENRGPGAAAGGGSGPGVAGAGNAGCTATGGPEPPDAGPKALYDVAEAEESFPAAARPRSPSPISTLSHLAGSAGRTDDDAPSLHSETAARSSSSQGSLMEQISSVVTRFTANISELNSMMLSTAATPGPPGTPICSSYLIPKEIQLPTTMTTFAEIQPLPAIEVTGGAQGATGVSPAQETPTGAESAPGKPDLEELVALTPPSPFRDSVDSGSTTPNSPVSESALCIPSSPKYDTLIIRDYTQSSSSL

By IC50 is commonly meant the point on the concentration scale where inhibition reaches its midpoint. Higher therefore signals a need for much substance. In test [1], `C=CCOc1cccc(C#Cc2cccc(C)n2)c1` returned an IC50 of 0.29 µM.
In test [1], `Cc1cccc(C#Cc2cccc(OC(=O)CCCBr)c2)n1` came in with an IC50 of 3.35 µM.
The term Ki denotes a dissociation constant, usually derived from enzyme kinetics or from competition with a known ligand. Read a low Ki as a stronger hold on the target. As to `COc1cccc(-c2cccc(C#Cc3cccc(C)n3)c2)c1`, the IC50 in test [1] turned out to be 0.493 µM. For the same compound, the inhibition constant Ki in test [2] was determined as 2.36 µM.
As for `Cc1cccc(C#Cc2cccc(OC(=O)CCCc3ccccc3)c2)n1`, half-maximal inhibition in test [1] (IC50) was put at 1.17 µM. In other words, the single-digit micromolar range.
In the case of `Cc1cccc(C#Cc2cccc(-c3ccccc3)c2)n1`, in test [1], the IC50 amounted to 0.629 µM. Moreover, the affinity in test [2] corresponds to a Ki of 0.993 µM.
`COc1cccc(C(=O)Oc2cccc(C#Cc3cccc(C)n3)c2)c1` gave an IC50 in test [1] of 1.72 µM.
With `Cc1cccc(C#Cc2cccc(OCCc3ccc(F)cc3)c2)n1`, the midpoint of inhibition in test [1], the IC50, lay at 2.05 µM.
`Cc1ccc(S(=O)(=O)Oc2cccc(C#Cc3cccc(C)n3)c2)cc1` displayed an IC50 in test [1] of over 10 µM.
With `Cc1cccc(C#Cc2cncc(-c3cccc(C)n3)c2)n1`, in test [1], half-maximal inhibition (IC50) required 0.257 µM. This compound also returned a Ki in test [2] of 0.013 µM.
As for `Cc1cccc(C#Cc2cccc([N+](=O)[O-])c2)n1`, in test [1], the half-inhibitory concentration (IC50) stood at 0.013 µM.
Take `Cc1cccc(C#Cc2cccc(OCCCc3ccccc3)c2)n1`: in test [1], the IC50 was 1.19 µM.
In test [1], `CC(=O)c1cccc(C#Cc2cccc(C)n2)c1` gave an IC50 of 0.146 µM.
Same read-out and setting: as for `Cc1cccc(C#Cc2cccc(OCCCCc3ccccc3)c2)n1`, the figure is 1.16 µM; as for `Cc1cccc(C#Cc2cccc(OC(=O)Cc3ccccc3)c2)n1`, 0.74 µM.
On the same count and under the same terms, as for `COc1cccc(COc2cccc(C#Cc3cccc(C)n3)c2)c1`, the figure is 1.3 µM.
Same read-out and setting: as for `Cc1cccc(C#Cc2cccc(OC(=O)c3cccc(I)c3)c2)n1`, the figure is 1.1 µM.
As for `Cc1cccc(C#Cc2cncc(-c3ccco3)c2)n1`, it took 0.205 µM to reach half-maximal inhibition in test [1] (IC50). For the same compound, in test [2], the Ki came out at 0.0065 µM.
Taken in the same sequence, the figures for `Cc1cccc(C#Cc2cncc(-c3cccs3)c2)n1` were 0.271 µM and 0.155 µM.
Taken in the same sequence, the figures for `Cc1cccc(C#Cc2cccc(-c3cccs3)c2)n1` were 0.656 µM and 0.147 µM.
In the case of `Cc1cccc(C#Cc2cccc(OC(=O)c3ccccc3)c2)n1`, the half-maximal inhibitory concentration (IC50) in test [1] was 1.5 µM.
In the case of `Cc1cccc(C#Cc2cncc(-c3ccccc3)c2)n1`, in test [1], the IC50 was 0.02 µM. Moreover, in test [2], the Ki is 0.0017 µM.
With `COC(=O)c1cccc(C#Cc2cccc(C)n2)c1`, the IC50 in test [1] is 0.208 µM.
As to `Cc1cccc(C#Cc2cccc(-c3ccco3)c2)n1`, the IC50 in test [1] is 0.371 µM. Also, the affinity in test [2] corresponds to a Ki of 0.036 µM.
Regarding `Cc1cccc(C#Cc2cccc(OC(=O)CCc3ccccc3)c2)n1`, the concentration for half-maximal inhibition (IC50) in test [1] amounted to 0.89 µM.
Same read-out and setting: as for `Cc1cccc(C#Cc2cccc(OC(=O)c3ccco3)c2)n1`, the figure is 1.01 µM; as for `Cc1cccc(C#Cc2cccc(N)c2)n1`, 0.188 µM.
`Cc1cccc(C#Cc2cccc(OCCc3ccccc3)c2)n1` had an IC50 in test [1] of 1.59 µM.
On the same count and under the same terms, as for `Cc1cccc(C#Cc2cccc(OCc3ccccc3)c2)n1`, the figure is 1.84 µM; as for `Cc1cccc(C#Cc2cccc(OS(C)(=O)=O)c2)n1`, 0.18 µM.
On the same count and under the same terms, as for `Cc1cccc(C#Cc2cccc(C#N)c2)n1`, the figure is 0.005 µM; as for `COC(=O)COc1cccc(C#Cc2cccc(C)n2)c1`, 2.4 µM.
As to `COc1cccc(-c2cncc(C#Cc3cccc(C)n3)c2)c1`, it took 0.282 µM to reach half-maximal inhibition in test [1] (IC50). This compound also showed a Ki in test [2] of 0.074 µM.
As to `Cc1cccc(C#Cc2cccc(OCC3CC3)c2)n1`, the half-inhibitory concentration (IC50) in test [1] turned out to be 0.42 µM.
On the same count and under the same terms, as for `COc1cccc(C#Cc2cccc(C)n2)c1` [M-MPEP], the figure is 0.008 µM; as for `Cc1cccc(C#Cc2cccc(OCc3cccc(I)c3)c2)n1`, 1.98 µM.

Values taken from ChEMBL document CHEMBL1141902, “Functionalization at position 3 of the phenyl ring of the potent mGluR5 noncompetitive antagonists MPEP” (Bioorg Med Chem Lett, 2005).
